The values that follow come from patent publication US20240343726A1, “PYRROLOPYRIDINE-3- AND 4-CARBOXAMIDE COMPOSITIONS AND METHODS FOR CELLULAR PROLIFERATION” (The Rockefeller University, priority 2021, published 2024).

Sequence of LATS1 kinase (O95835 589-1130): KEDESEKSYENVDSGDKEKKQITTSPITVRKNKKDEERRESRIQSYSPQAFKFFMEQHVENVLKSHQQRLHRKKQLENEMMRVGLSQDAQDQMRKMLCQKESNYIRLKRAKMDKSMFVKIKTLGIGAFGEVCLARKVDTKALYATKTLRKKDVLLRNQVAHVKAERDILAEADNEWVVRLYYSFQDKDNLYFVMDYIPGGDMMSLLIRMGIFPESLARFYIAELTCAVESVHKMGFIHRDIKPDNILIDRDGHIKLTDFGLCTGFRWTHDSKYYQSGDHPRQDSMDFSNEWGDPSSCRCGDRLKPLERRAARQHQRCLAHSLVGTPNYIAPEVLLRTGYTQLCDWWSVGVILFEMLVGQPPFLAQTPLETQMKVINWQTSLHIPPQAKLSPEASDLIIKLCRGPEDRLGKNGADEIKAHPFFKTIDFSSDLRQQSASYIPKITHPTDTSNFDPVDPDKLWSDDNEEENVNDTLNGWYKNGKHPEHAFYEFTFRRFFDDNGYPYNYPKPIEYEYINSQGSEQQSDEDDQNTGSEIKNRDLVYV

In this test the target is LATS1 kinase (Homo sapiens (Human), UniProt O95835). Nature of the test: LATS1 Biochemical HTRF Assay. Particulars: 2 mM ATP; read-out: LATS1_HTRF_2 mM ATP IC50. How it is done:
LATS1 Biochemical HTRF Assay
MgCl2 and [1 mM] DTT. 1× Enzymatic buffer diluted from 5× Enzymatic buffer*. Add 0.5 μL of 20× compound in 100% DMSO. […] MgCl2, [1 mM] DTIT and [5 mg/mL] BSA. 5×ERR prepared from 5× Enzymatic buffer with [25 mg/mL] BSA. Mix plate on plate shaker set at 1,350 rpm for 30 seconds, then centrifuge plate at 1,000 rpm for 1 minute. Incubate for 30 minutes at 25° C. on plate shaker set to 500 rpm. […] STK Substrate 1-biotin* then add 2 μL [10 mM] ATP. Mix plate on plate shaker set at 1,350 rpm for 30 seconds, then centrifuge plate at 1,000 rpm for 1 minute. Incubate for 40 minutes at 25° C. on plate shaker set to 500 rpm. […] Streptavidin-XL665 with 1×STK Antibody-Cryptate*. Mix plate on plate shaker set at 1,350 rpm for 30 seconds, then centrifuge plate at 1,000 rpm for 1 minute. Incubate for 60 minutes at 25° C. on plate shaker set to 500 rpm, covered from light.
*(Included in Cisbio KinEASE-STK Si HTRF Kit: 62ST1PEC)
On to `O=C(/N=C1\SCC(CO)N1Cc1ccccc1)c1c[nH]c2ncccc12` (stereo not shown) [Example 82], for which the IC50 (commonly the midpoint of a concentration-inhibition curve) turned out to be 0.017 µM.

For `O=C(/N=c1\sc(CO)cn1-c1ccccc1Cl)c1ccnc2[nH]ccc12` [Example 63, (Z)—N-(3-(2-chlorophenyl)-5-(hydroxymethyl)thiazol-2(3H)-ylidene)-1H-pyrrolo[2,3-b]pyridine-4-carboxamide], the IC50 stood at 0.85 µM.

Consider `O=C(/N=c1\sccn1-c1ccc(Cl)cc1)c1ccnc2[nH]ccc12` [Example 44], for which the IC50 stood at 0.36 µM.

As for `O=C(/N=c1\sccn1Cc1ccccc1)n1ccc2ncccc21` [Example 86], the IC50 came to 0.9 µM.

Regarding `CC(=O)NCc1cs/c(=N\C(=O)c2ccnc3[nH]ccc23)n1-c1ccccc1Cl` [Example 60, (Z)—N-(4-(acetamidomethyl)-3-(2-chlorophenyl)thiazol-2(3H)-ylidene)-1H-pyrrolo[2,3-b]pyridine-4-carboxamide], the IC50 is 0.33 µM.

For the compound `O=C(/N=C1\SCCN1C1CCCC1O)c1c[nH]c2ncccc12` (stereo not shown) [Example 79, (NZ)—N-[3-(2-hydroxycyclopentyl)thiazolidin-2-ylidene]-1H-pyrrolo[2,3-b]pyridine-3-carboxamide], the IC50 was 0.221 µM.

Take `Cc1cs/c(=N\C(=O)c2ccnc3[nH]ccc23)n1C1CCCCC1` [Example 51]: the IC50 came to 0.031 µM.

As to `O=C(/N=C1\SCCN1C1CCC(O)C1)c1c[nH]c2ncccc12` (stereo not shown) [Example 81, (Z)—N-(3-(3-hydroxycyclopentyl)thiazolidin-2-ylidene)-1H-pyrrolo[2,3-b]pyridine-3-carboxamide], the IC50 was 0.05 µM.

On to `CCc1ccccc1-n1ccs/c1=N\C(=O)c1ccnc2[nH]ccc12` [Example 47], for which the IC50 was found to be 0.765 µM.

As for `CN(C)C(=O)c1cs/c(=N\C(=O)c2ccnc3[nH]ccc23)n1-c1ccccc1Cl` [Example 56], the IC50 stood at 2.78 µM.

For the compound `O=C(/N=C1\SCCCN1c1ccccc1)c1ccnc2[nH]ccc12` [Example 29], the IC50 was determined as 1.38 µM.

Turning to `O=C(/N=C1\SCCCCN1c1ccccc1)c1c[nH]c2ncccc12` [Example 40, (Z)—N-(3-phenyl-1,3-thiazepan-2-ylidene)-1H-pyrrolo[2,3-b]pyridine-3-carboxamide], the IC50 was 0.22 µM.

Take `O=C(/N=c1\sccn1C1CCCCC1)c1ccnc2[nH]ccc12` [Example 49]: the IC50 amounted to 0.505 µM.

Take `O=C(/N=C1\SCCCN1c1cccc(O)c1)c1c[nH]c2ncccc12` [Example 78]: the IC50 came to 0.018 µM.

In the case of `O=C(/N=C1\SCCN1c1c(O)cccc1Cl)c1c[nH]c2ncccc12` [Example 74, (NZ)—N-[3-(2-chloro-6-hydroxy-phenyl)thiazolidin-2-ylidene]-1H-pyrrolo[2,3-b]pyridine-3-carboxamide], the IC50 is 0.0018 µM.

For `O=C(/N=C1\SCC2CCCCN12)c1c[nH]c2ncccc12` (stereo not shown) [Example 21], the IC50 was found to be 3.78 µM.

Take `O=C(/N=C1\SCC(=O)N1c1ccccc1)c1c[nH]c2ncccc12` [Example 23]: the IC50 was 0.224 µM.

As for `O=C(/N=C1\SCC(CO)N1c1ccccc1Cl)c1c[nH]c2ncccc12` (stereo not shown) [Example 80], the IC50 worked out at 0.0016 µM.

Regarding `O=C(/N=c1\scc(CO)n1Cc1ccccc1)c1ccnc2[nH]ccc12` [Example 54, (Z)—N-(3-benzyl-4-(hydroxymethyl)thiazol-2(3H)-ylidene)-1H-pyrrolo[2,3-b]pyridine-4-carboxamide], the IC50 was 0.18 µM.

In the case of `O=C(/N=C1\SCCN1c1cc(F)ccc1O)c1c[nH]c2ncccc12` [Example 75], the IC50 is 0.0015 µM.

Regarding `O=C(/N=C1\SCC2CNCCN12)c1c[nH]c2ncccc12` (stereo not shown) [Example 22, (Z)—N-(hexahydro-3H-thiazolo[3,4-a]pyrazin-3-ylidene)-1H-pyrrolo[2,3-b]pyridine-3-carboxamide], the IC50 was determined as 2.13 µM.

As for `Cc1ccccc1-n1ccs/c1=N\C(=O)c1ccnc2[nH]ccc12` [Example 42], the IC50 worked out at 0.033 µM.

In the case of `O=C(/N=C1\SCCN1c1c(O)cccc1F)c1c[nH]c2ncccc12` [Example 70], the IC50 was 0.0006 µM.

As to `O=C(/N=C1\SCCN1c1ccc(F)cc1O)c1c[nH]c2ncccc12` [Example 72], the concentration for half-maximal inhibition (IC50) is 0.0011 µM.

For `COc1ccccc1-n1ccs/c1=N\C(=O)c1ccnc2[nH]ccc12` [Example 46], the IC50 was found to be 1.77 µM.

As to `O=C(/N=C1\SCCN1c1cccc(=O)[nH]1)c1c[nH]c2ncccc12` [Example 77], the IC50 came to 4.83 µM.

Regarding `O=C(/N=c1\sccc(=O)n1-c1ccccc1)c1c[nH]c2ncccc12` [Example 38], the IC50 was found to be 0.65 µM.

For the compound `Cc1cs/c(=N\C(=O)c2ccnc3[nH]ccc23)n1Cc1ccccc1` [Example 53], the IC50 worked out at 0.22 µM.

Regarding `CN(C)C(=O)CN1CCS/C1=N\C(=O)c1c[nH]c2ncccc12` [Example 18], the IC50 was determined as 0.5 µM.

On to `CN(C)Cc1cs/c(=N\C(=O)c2ccnc3[nH]ccc23)n1-c1ccccc1Cl` [Example 59, (Z)—N-(3-(2-chlorophenyl)-4-((dimethylamino)methyl)thiazol-2(3H)-ylidene)-1H-pyrrolo[2,3-b]pyridine-4-carboxamide], for which the IC50 amounted to 0.215 µM.

For `CC1(C)CS/C(=N\C(=O)c2c[nH]c3ncccc23)N(C2CCCCC2)C1` [Example 33], the IC50 was found to be 4.44 µM.

Consider `Cc1cn(-c2ccccc2Cl)/c(=N/C(=O)c2ccnc3[nH]ccc23)s1` [Example 61], for which the IC50 came out at 1.23 µM.

Turning to `CC(=O)N1CCC(N2CCCS/C2=N\C(=O)c2c[nH]c3ncccc23)CC1` [Example 31], the IC50 worked out at 2.75 µM.

Consider `O=C(/N=c1\sc(CO)cn1Cc1ccccc1)c1ccnc2[nH]ccc12` [Example 62, (Z)—N-(3-benzyl-5-(hydroxymethyl)thiazol-2(3H)-ylidene)-1H-pyrrolo[2,3-b]pyridine-4-carboxamide], for which the IC50 turned out to be 4.04 µM.

As to `O=C(/N=C1\SCCN1c1cccc(F)c1O)c1c[nH]c2ncccc12` [Example 73], the IC50 is 0.0014 µM.

As for `O=C(/N=c1\sccn1-c1ccccc1C(F)(F)F)c1ccnc2[nH]ccc12` [Example 48], the IC50 amounted to 1.23 µM.

Turning to `O=C(/N=c1\sccn1-c1cccc(Cl)c1)c1ccnc2[nH]ccc12` [Example 43], the IC50 was determined as 1.67 µM.

Take `O=C(/N=C1\SCCN1c1ccc[nH]c1=O)c1c[nH]c2ncccc12` [Example 76]: the IC50 came out at 0.191 µM.

For the compound `CN(C)CCNC(=O)c1cs/c(=N\C(=O)c2ccnc3[nH]ccc23)n1Cc1ccccc1` [Example 57, (Z)-2-((1H-pyrrolo[2,3-b]pyridine-4-carbonyl)imino)-3-benzyl-N-(2-(dimethylamino)ethyl)-2,3-dihydrothiazole-4-carboxamide], the IC50 came to 0.46 µM.

As to `O=C(/N=c1\sccn1-c1ccc(CO)cc1Cl)c1ccnc2[nH]ccc12` [Example 50], the IC50 was found to be 2.06 µM.

For the compound `Cc1cs/c(=N\C(=O)c2ccnc3[nH]ccc23)n1CC1CCCCC1` [Example 52], the IC50 came to 0.012 µM.

As for `CN(C)C(=O)CN1CCCS/C1=N\C(=O)c1c[nH]c2ncccc12` [Example 37, (Z)—N-(3-(2-(Dimethylamino)-2-oxoethyl)-1,3-thiazinan-2-ylidene)-1H-pyrrolo[2,3-b]pyridine-3-carboxamide], the IC50 was found to be 1.68 µM.

Consider `CNC(=O)C1CS/C(=N\C(=O)c2c[nH]c3ncccc23)N1c1ccccc1` (stereo not shown) [Example 15, (Z)-2-((1H-pyrrolo[2,3-b]pyridine-3-carbonyl)imino)-N-methyl-3-phenylthiazolidine-4-carboxamide], for which the IC50 was 0.0079 µM.

Take `O=C(/N=c1\scc(CO)n1-c1ccccc1Cl)c1ccnc2[nH]ccc12` [Example 55, (Z)—N-(3-(2-chlorophenyl)-4-(hydroxymethyl)thiazol-2(3H)-ylidene)-1H-pyrrolo[2,3-b]pyridine-4-carboxamide]: the IC50 turned out to be 0.068 µM.

Turning to `N#Cc1cc2ncccc2n1C(=O)/N=c1\sccn1-c1ccccc1` [Example 87], the IC50 came out at 2.14 µM.

As for `O=C(/N=C1\SCCCCN1Cc1ccccc1)c1c[nH]c2ncccc12` [Example 39, (Z)—N-(3-benzyl-1,3-thiazepan-2-ylidene)-1H-pyrrolo[2,3-b]pyridine-3-carboxamide], the IC50 was found to be 0.27 µM.
